Assay results taken from patent publication US10064834B2, “Carbidopa for the treatment of cancer” (Texas Tech University System, priority 2016, dated 2018).
Read-outs that look alike come from different tables or passages of the source.

Legend:
AhR [1] = system: AhR
Procedure: With a fixed concentration (10 μM), the inventors compared in HepG2 cells the induction of CYP1A1 by Carbidopa with that by other known AhR agonists, which included 3-ethylcholanthrene, benzo[a]pyrene, kynurenine, indole-3-carbinol, and indole acetic acid (Table 1).

HCC-1937 cells = assay: Colony formation assay, BRCA-1 mutant breast cancer cells; assay type: cell-based, human
Excerpt: Breast cancer occurs in different subtypes: estrogen receptor-positive, estrogen receptor-negative, and BRCA1-mutant. Mutations in BRCA-1 represent a small percentage of breast cancers in women but the disease is inheritable. […] To assess the potential of Carbidopa for the treatment of mutant BRCA-1-driven breast cancer, the inventors used the human breast cancer cell line HCC-1937, a well-established model to study mutant BRCA-1-driven breast cancer in model systems. The inventors monitored the effect of Carbidopa (dose response) on the growth of these cells using the colony formation assay.

[2] = target: recombinant human indoleamine dioxygenase-1 (IDO1) (Homo sapiens, UniProt P14902); assay: IDO1 enzymatic activity assay (colorimetric); assay type: biochemical
Excerpt: IDO-1 is an immunosuppressive enzyme that is induced in tumor cells and in immune cells present in tumor-draining lymph nodes. Induction of this enzyme suppresses the ability of the immune system to recognize tumor cells as foreign cells, which provides a means for the tumor cells to escape the immune attack. Pharmacological inhibition of this enzyme has potential in cancer treatment because such an approach will potentiate the ability of the immune system to kill the tumor cells. Many pharmaceutical companies have research programs in identifying selective inhibitors of IDO-1 for this purpose and some of the drugs are already in clinical trials in cancer patients. The present inventors assessed the ability of Carbidopa on the activity of this enzyme using the recombinant human enzyme.
To date, the only known pharmacological action of Carbidopa is the inhibition of aromatic amino acid decarboxylase, but the inventors are not aware of any direct association between this enzyme and cancer. Therefore, the inventors looked for new, hitherto unknown, pharmacological actions for this drug that could be related to the observed anticancer effect. […]

[3] = in vivo; cited from earlier work
hTERT-HPNE cells = assay: Colony formation (clonogenic) assay, normal pancreatic cell line; assay type: cell-based, human; conditions: 10 μM, two weeks
Procedure: (§1) Cell proliferation. Clonogenic assay was performed as described. The cells were seeded at a very low density (500 cells/well) and allowed to attach to the substratum. […] The wells were washed every other day and fresh Carbidopa was added to the wells. At the end of the two-week period, the wells were washed and the colonies were visualized with KaryoMax Giemsa stain after fixation with methanol. The stain was eluted with 1% sodium dodecyl sulfate in […] and the absorbance was measured at 630 nm. Inhibition of pancreatic cancer cell proliferation by Carbidopa and its potential relevance to the ability of the drug to inhibit IDO1. To test whether Carbidopa has anticancer effect, the inventors used pancreatic cancer as a model. For this, the inventors first conducted a colony formation assay with a human pancreatic normal cell line (hTERT-HPNE) and two human pancreatic cancer cell lines (BxPC-3 and Capan-2). […] To corroborate these in vitro data, the inventors performed subcutaneous xenografts in athymic nude mice using BxPC-3 cells.

AhR [4] = assay: Immunofluorescence localisation of AhR; assay type: cell-based, human; conditions: 25 μM for 6 h
Procedure: Immunofluorescence. Immunofluorescence studies were performed as described [12]. Briefly, cells grown on chamber slides were fixed, blocked and stained with mouse anti-AhR antibody (Abcam, Cambridge, Mass., USA) for 45 min after which they were washed and stained with secondary antibody (goat anti-mouse IgG) conjugated with Alexa Fluor 488 (Molecular Probes, Eugene, Oreg., USA); further washed and mounted with ProLong Diamond Antifade mountant with DAPI and the images were captured using a Nikon inverted microscope. Nuclei stained with DAPI are blue. Magnification, 100×.

[5] = cited from earlier work
BxPC-3 cells [6] = assay: Colony formation (clonogenic) assay, BxPC-3; assay type: cell-based, human
Procedure: Clonogenic assay was performed as described [12]. The cells were seeded at a very low density (500 cells/well) and allowed to attach to the substratum. They were then treated with 10 μM Carbidopa and the colonies were allowed to grow for two weeks. The wells were washed every other day and fresh Carbidopa was added to the wells. At the end of the two-week period, the wells were washed and the colonies were visualized with KaryoMax Giemsa stain after fixation with methanol. The stain was eluted with 1% sodium dodecyl sulfate in 0.2 NaOH and the absorbance was measured at 630 nm.

[7] = human, oral, cited from earlier work
Capan-2 cells = assay: Colony formation (clonogenic) assay, Capan-2; assay type: cell-based, human; conditions: Capan-2, 10 μM, two weeks
Procedure: as §1

[8] = in vivo; cited from earlier work; remark: listed apart in the source
[9] = system: Ki-67, p-mTOR, HIF1α and Cyp1a1 protein expression; assay: Immunohistochemical analysis in MMTV-PyMT-Tg mice; assay type: in vivo, mouse; conditions: Carbidopa-treated MMTV-PyMT-Tg mice
Excerpt: FIG. 8 is an immunohistochemical analysis of Ki-67, p-mTOR, HIF1α and Cyp1a1 protein expression in MMTV-PyMT-Tg mice treated with and without Carbidopa. […] Hypoxia is a key regulatory factor in tumor progression and in response to the hypoxic tumor environment, it regulates cell metabolism and redox homeostasis. HIF1α level in tumors is controlled by mTOR. […] To further validate the data, the inventors measured the expression of Cyp1a1 in MMTV-PyMT-Tg mice treated with and without Carbidopa. Cyp1a1 is an aryl hydrocarbon (AhR) receptor-responsive gene induced in response to AhR activation. AhR is activated by kynurenine, a product of IDO1 action on tryptophan. Thus, Cyp1a1 levels in tumor tissues serve as a read out for IDO1 activity. […] H&E, hematoxylin and eosin stain.

MB-231 cells = assay: Colony formation assay, ER-negative breast cancer cells; assay type: cell-based, human
Excerpt: Breast cancer occurs in different subtypes: estrogen receptor-positive, estrogen receptor-negative, and BRCA1-mutant. The MMTV-PyMT-Tg mice represent estrogen receptor-positive breast cancer at least at the initial stages. To assess the potential of Carbidopa for the treatment of ER-negative breast cancer, the inventors used the human breast cancer cell line MB-231, a well-established model to study ER-negative breast cancer in model systems. The inventors monitored the effect of Carbidopa (dose response) on the growth of these cells using the colony formation assay.

BxPC-3 cells [10] = assay: Subcutaneous BxPC-3 xenograft in athymic nude mice; assay type: in vivo, mouse
Procedure: FIGS. 2A and 2B show the in vivo effect of Carbidopa on the growth of BxPC-3 cells in mouse xenografts. The cells were injected subcutaneously in athymic nude mice. Carbidopa (1 mg/mouse) was injected intraperitoneally (i.p.) two days prior to the injection of the tumor cells (prevention mode). Drug injection was continued every day at the same dose. […] The growth of the tumor at the injected site was monitored every other day.
Xenograft studies. Female athymic nu/nu mice (8-week-old) were allowed to acclimatize to the environment for about a week before the start of the experiment. The animals were divided into control and treatment groups and injected with phosphate-buffered saline (control group) and Carbidopa @ 1 mg/mouse/day) (treatment group) intraperitoneally, at least 5 days prior to tumor cell injection. BxPC-3 (10×10^6 cells in 30% matrigel) was injected subcutaneously at the right flank of the mice. The treatment continued all through the experimental period. Tumor size in different groups were measured using a caliper and the tumor volume was calculated using the formula (width^2×length)/2.

[11] = system: spontaneous breast cancer driven by the polyoma middle T antigen oncogene; assay: Spontaneous breast cancer in MMTV-PyMT-Tg mice; assay type: in vivo; conditions: 1 mg/mouse i.p.
Excerpt: The MMTV-PyMT-Tg mice develop spontaneous breast tumors within 2 months of age. […] The drug treatment was started at 4 weeks of age and continued for two months. The mice were photographed at the end of this experimental period. The circles indicate the tumor size in two representative control mice and two representative Carbidopa-treated mice. […] The MMTV-PyMT-Tg mice develop spontaneous breast tumors within 2 months of age. […] The drug treatment was started at 4 weeks of age and continued for three months. The mice were photographed at the end of the study period. The circles indicate the tumor size in two representative control mice and two representative Carbidopa-treated mice.

Panc-1 cells = assay: Colony formation assay, Panc-1; assay type: cell-based; conditions: Homo sapiens; Panc-1, colony formation; read-out: Carbidopa concentration for 50% inhibition of growth
Excerpt: Colony formation assay was used to assess the effect.

[12] = target: indoleamine-2,3-dioxygenase 1 (IDO1) (Homo sapiens, UniProt P14902); conditions: reference [13]; cited from earlier work
AhR [13] = conditions: Capan-2
AhR [14] = conditions: BxPC-3, Carbidopa 10 μM, 6 h

Sequence of recombinant human indoleamine dioxygenase-1 (IDO1) (P14902 whole entry): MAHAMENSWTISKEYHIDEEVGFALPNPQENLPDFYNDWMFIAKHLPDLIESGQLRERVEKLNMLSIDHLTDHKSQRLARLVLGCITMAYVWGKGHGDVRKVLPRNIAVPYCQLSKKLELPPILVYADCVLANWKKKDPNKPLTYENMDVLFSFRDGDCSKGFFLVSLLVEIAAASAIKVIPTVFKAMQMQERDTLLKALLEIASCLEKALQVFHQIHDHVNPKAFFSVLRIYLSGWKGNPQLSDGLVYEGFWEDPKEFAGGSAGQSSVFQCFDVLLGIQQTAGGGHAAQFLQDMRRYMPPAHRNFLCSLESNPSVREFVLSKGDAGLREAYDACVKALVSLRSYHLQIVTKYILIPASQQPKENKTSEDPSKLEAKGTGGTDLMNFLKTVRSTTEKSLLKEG
Sequence of indoleamine-2,3-dioxygenase 1 (IDO1) (P14902 whole entry): as above

**Q.** With `Cc1ccc2cc3c(ccc4ccccc43)c3c2c1CC3` [3-Methylcholanthrene] as the compound, how does the “CYP1A1 expression, Fold [range]” value (AhR [1]; HepG2 cells, 10 micromolar) read?
**A.** 56.8 Fold

**Q.** For `OCc1c[nH]c2ccccc12` [Indole 3-carbinol], which “CYP1A1 expression, Fold [range]” value (AhR [1]; HepG2 cells, 10 micromolar) is on record?
**A.** 7.62 Fold

**Q.** For `C[C@@](Cc1ccc(O)c(O)c1)(NN)C(=O)O` [Carbidopa, (2S)-3-(3,4-dihydroxyphenyl)-2-hydrazino-2-methylpropanoic acid], which “effect on the growth of the cells” value (HCC-1937 cells; HCC-1937, dose response) is on record?
**A.** marked inhibitory effect

**Q.** What about the IC50 (HCC-1937 cells; Homo sapiens, HCC1937, HCC-1937, colony formation, read-out: Carbidopa concentration for 50% inhibition of growth) of the same compound?
**A.** < 25 µM

**Q.** What about the “inhibition of IDO-1 enzyme activity” value ([2]; 10 μM) of the same compound?
**A.** inhibits IDO-1 significantly

**Q.** What about the “inhibition of IDO1 enzyme activity” value ([2]; colorimetric assay of kynurenine, efficacy said to be markedly underestimated) of the same compound?
**A.** does indeed inhibit IDO1

**Q.** And the oral bioavailability [3]?
**A.** orally bioavailable

**Q.** And the “number of colonies compared to untreated controls” value (hTERT-HPNE cells)?
**A.** not seen

**Q.** And the “localisation of AhR” value (AhR [4]; BxPC-3 cells)?
**A.** nuclear translocation of the receptor

**Q.** What about the “localisation of AhR” value (AhR [4]; Capan-2 cells) of the same compound?
**A.** nuclear translocation of the receptor

**Q.** And the “localisation of AhR” value (AhR [4]; HepG2 cells)?
**A.** led to the nuclear translocation of AhR

**Q.** And the “side effects in humans” value ([5]; <400 mg/day in patients weighing 60 kg)?
**A.** no unwanted side effects

**Q.** What about the safety in humans ([5]; dose as high as 450 mg/day) of the same compound?
**A.** safe

**Q.** What about the “growth of BxPC-3 cells” value (BxPC-3 cells [6]; 10 μM Carbidopa, colony formation) of the same compound?
**A.** almost completely abolished

**Q.** What about the “number of colonies compared to untreated controls” value (BxPC-3 cells [6]; BxPC-3, 10 μM, two weeks) of the same compound?
**A.** significantly reduced

**Q.** What about the plasma concentration ([7]; 75 mg/day dose) of the same compound?
**A.** 2000 nM

**Q.** And the plasma concentration ([7]; 450 mg/day dose)?
**A.** 16000 nM

**Q.** And the “number of colonies compared to untreated controls” value (Capan-2 cells)?
**A.** significantly reduced

**Q.** And the “crossing of the blood-brain barrier” value [8]?
**A.** inability of the latter to cross the blood-brain barrier

**Q.** And the “Cyp1a1 expression in tumor tissues” value [9]?
**A.** significant reduction in Cyp1a1 expression

**Q.** And the HIF1α protein [9]?
**A.** marked decrease in HIF1α protein

**Q.** And the “Ki-67 staining (cell proliferation)” value [9]?
**A.** marked reduction in proliferation

**Q.** What about the p-mTOR staining [9] of the same compound?
**A.** marked reduction in p-mTOR staining

**Q.** What about the IC50 (MB-231 cells; Homo sapiens, MB-231, colony formation, read-out: Carbidopa concentration for 50% inhibition of growth) of the same compound?
**A.** < 15 µM

**Q.** And the “effect on the growth of the cells” value (MB-231 cells; MB-231, dose response)?
**A.** marked inhibitory effect

**Q.** And the “growth of the tumor” value (BxPC-3 cells [10]; 1 mg/mouse i.p. every day, prevention mode)?
**A.** reduced the growth of the tumor markedly

**Q.** What about the “tumor volume compared to untreated controls” value (BxPC-3 cells [10]; daily dose of 1 mg/mouse, intraperitoneal) of the same compound?
**A.** significantly reduced the tumor volume

**Q.** And the “concentrations at which Carbidopa activates AhR” value (AhR [1])?
**A.** 3000 to 10000 nM

**Q.** What about the “CYP1A1 expression, Fold [range]” value (AhR [1]; human, 10 μM) of the same compound?
**A.** 2.63 Fold

**Q.** And the “time post-treatment at which CYP1A1 induction is seen” value (AhR [1]; human, 10 μM)?
**A.** ≤ 3 h

**Q.** And the “number and size of the tumors” value ([11]; treatment for three months)?
**A.** reduced the number and size of the tumors

**Q.** And the “number and size of the tumors” value ([11]; treatment for two months)?
**A.** reduced the number and size of the tumors

**Q.** And the IC50 (Panc-1 cells)?
**A.** < 50 µM

**Q.** Which IC50 [12] does the source give for `NNc1ccccc1` [phenylhydrazine] here?
**A.** 8 ± 2 µM

**Q.** For `Nc1ccccc1C(=O)CC(N)C(=O)O` (stereo not shown) [Kynurenine], which “CYP1A1 expression, Fold [range]” value (AhR [1]; human, 10 μM) is on record?
**A.** 3.97 Fold

**Q.** With `N[C@@H](Cc1ccc(O)c(O)c1)C(=O)O` [L-DOPA, L-3,4-dihydroxyphenylalanine] as the compound, how does the “CYP1A1 mRNA expression” value (AhR [1]; human, 6 h, 100 μM) read?
**A.** did not affect CYP1A1 expression

**Q.** With `c1ccc2c(c1)cc1ccc3cccc4ccc2c1c34` [Benzo [a] pyrene] as the compound, how does the “CYP1A1 expression, Fold [range]” value (AhR [1]; HepG2 cells, 10 micromolar) read?
**A.** 35.3 Fold

**Q.** With `Cc1ccccc1N=Nc1ccc(NC(=O)c2ccnn2C)c(C)c1` [CH223191] as the compound, how does the “effect of AhR antagonist on Carbidopa-induced CYP1A1 expression” value (from here on “effect of AhR antagonist”) (AhR [13]) read?
**A.** blocked

**Q.** And the “effect of AhR antagonist” value (AhR [1]; HepG2, Carbidopa 10 μM, CH223191 10 μM, resveratrol 20 μM, 6 h)?
**A.** blocked

**Q.** And the “effect of AhR antagonist” value (AhR [14])?
**A.** blocked
